“Also recorded” adds a separate entry of the source.
Assays:
[1] = tested on: EMT6, CT26, 4T1 murine tumors; test: In vivo murine tumor models (FIG. 2); design: species or system mouse; conditions: compounds 50 mg/kg oral gavage once a day 5 days a week, anti PD-1 10 mg/kg ip three times a week
Source text: Four different immune-oncology mouse models of cancer were used to evaluate the in vivo efficacy of compounds 8 and 10 of this invention. In this experiment, we compared the efficacy of an anti PD-1 antibody with that shown by the HDAC6 inhibitors. Anti PD-1 targets the immune checkpoint PD-1/PD-L1 axis and is an established immunotherapy in a growing number of malignancies (Pardoll D. M., Nature Reviews Cancer, 2012, 12: 252-264).
Tumors were induced in immunocompetent mice using the following cell lines: • EMT6 (murine breast cancer) • CT26 (murine colon cancer • 4T1 (triple negative murine breast cancer)
• Therapeutic treatment started when tumor nodules reached approximately 3 mm in diameter. • Compounds 8 and 10 were administered by oral gavage once a day for 5 days a week at 50 mg/kg. • Anti PD-1 antibody was administered three times a week by ip injection at 10 mg/kg.

CT26 tumor = test: CT-26 murine model, single agents and combination with anti PD-1 (FIG. 3); type: in vivo, BALB/c mice; conditions: for CT-26 tumor growth/progression, single agent: p.o. 50 mg/Kg daily
Protocol: FIG. 3: HDAC6 inhibitors reduces CT-26 tumor growth in vivo and their activity can be improved by combined treatment with anti PD-1 antibody. Statistics was evaluated at day 30 by Student's t test. *, P<0.05; **, P<0.01; ***, P<0.001. See text for further details. […] Adult BALB/c mice were injected s.c. with 1×10^6 CT26 tumor cells (diluted to 100 ul with phosphate-buffered saline). One week later, mice were given daily compounds 8 and 10 p.o. at 50 mg/Kg and/or injected with anti-PD1 antibody at 10 mg/Kg. At time of sacrifice, spleens were taken to analyze ex vivo, the tumor immune response. Spleen cells were stimulated with a mixture of CT-26 tumor specific peptides recognized in the context of both MHC I and MHC II. Thus, using this ex vivo stimulation, a specific tumor response mediated by CD4 and CD8 T cells can be detected.

[2] = tested on: CD4 and CD8 T cells of CT-26 bearing mice; test: Ex vivo stimulation of splenocytes with CT-26 tumor peptides, IFN-γ and TNF-α by CD4 and CD8 T cells (ELISPOT); type: in vivo, BALB/c mice; conditions: splenocytes stimulated with CT-26 specific peptides, FIGS. 4 and 5
Protocol: Splenocytes of animal treated with Compounds 8 and 10 and the combination with anti PD-1 Ab were stimulated with CT-26 derived tumor peptides and the production of IFN-γ and TNF-α by CD4 T cells was quantified by ELISPOT.
Splenocytes of animal treated with Compound 8 and 10 and the combination with anti PD-1 Ab were stimulated with CT-26 derived tumor peptides and the production of IFN-γ and TNF-α by CD8 Tcells was quantified by ELISPOT.
Adult BALB/c mice were injected s.c. with 1×10^6 CT26 tumor cells (diluted to 100 ul with phosphate-buffered saline). One week later, mice were given daily compounds 8 and 10 p.o. at 50 mg/Kg and/or injected with anti-PD1 antibody at 10 mg/Kg. At time of sacrifice, spleens were taken to analyze ex vivo, the tumor immune response. Spleen cells were stimulated with a mixture of CT-26 tumor specific peptides recognized in the context of both MHC I and MHC II. Thus, using this ex vivo stimulation, a specific tumor response mediated by CD4 and CD8 T cells can be detected.
The results are shown in FIGS. 4 and 5 where the percentage of CD4 and CD8 T cells that produce IFN-γ and TNF-α are indicated for each treatment group.

[3] = tested on: PD-L1 expression in iDC (GMCSF-IL-4 stimulated monocytes); test: Inhibition of the expression of PD-L1 in in vitro derived dendritic cells; type: cell-based; conditions: human monocytes, GMCSF-IL-4, 5 days, FIG. 1
Protocol: FIG. 1: The inhibition of PD-L1 expression in iDC (GMCSF-IL-4 stimulated monocytes). Human monocytes were treated with HDAC6 inhibitors and stimulated with GMCSF-IL-4 for 5 days. After incubation, cells were collected and labelled with an anti PD-L1 antibody. Cells were then washed and fluorescence data were acquired using a flow cytometer (BD FACSVerse). Values on the graphs represent the mean of 3 experiment carried out on 3 different donors (n=3). The expression of PD-L1 is represented by the geometric mean of the fluorescence. *=P<0.05 determined by Student's t test.
To obtain in vitro derived DCs, human monocytes purified from PBMC, were treated for 5 days with GMCSF (50 ng/ml) and IL-4 (10 ng/ml) in the presence of two selective HDAC6 inhibitors described in this invention (compounds 10 and 19) and the HDAC inhibitor example 43 of WO 2012/106343. Control cells were treated with the inhibitor's vehicle. This procedure induces the formation of immature dendritic cells (iDCs) that express PD-L1 (Brown J A et al. J Immunol. 2003; 170:1257-66). After 5 days, iDCs were analyzed for the expression of the inhibitory marker […].

Structure (SMILES) | tumor growth in vivo [1] | CT-26 tumor growth/progression, single agent (CT26 tumor) | ex vivo tumor specific T cell immune response [2] | PD-L1 expression in iDC [3] | CT-26 tumor growth inhibition, combination with anti PD-1 antibody (CT26 tumor; compound p.o. 50 mg/Kg plus anti-PD1 antibody 10 mg/Kg)
O=C(NO)c1ccc(Cn2nnnc2-c2cccs2)cc1 [comp. 8, N-hydroxy-4-((5-(thiophen-2-yl)-1H-tetrazol-1-yl)methyl)benzamide] | comparable efficacy in reducing tumor growth; also recorded: reduce tumor growth in vivo | significantly reduce CT-26 tumor progression | greater neo antigen immune response |  | 
Cn1c(Sc2ccc(C(=O)NO)cc2)nnc1-c1cccs1 [comp. 10, N-hydroxy-4-((4-methyl-5-(thiophen-2-yl)-4H-1,2,4-triazol-3-yl)thio)benzamide] | comparable efficacy in reducing tumor growth; also recorded: reduce tumor growth in vivo | significantly reduce CT-26 tumor progression | greater neo antigen immune response | reduced the PD-L1 expression in a statistically significant way | further improves tumor growth inhibition
O=C(NO)c1cc(F)c(Cn2nnc(-c3ccco3)n2)c(F)c1 [comp. 19, 3,5-difluoro-4-((5-(furan-2-yl)-2H-tetrazol-2-yl)methyl)-N-hydroxybenzamide] |  |  |  | reduced the PD-L1 expression in a statistically significant way | 
